Data reported in patent EP2735303A1, “Hair growth compositions and methods” (Pilosciences, priority 2012, dated 2014).

What was measured:
[1] = test system: human skin explants; assay: Morphology of the hair follicle in human skin explants ex vivo after topical application (histology); assay type: cell-based; design: key to Upper part (quotation of morphological alterations) / Sebaceous gland (quotation of morphological alterations): -: no alteration; +: weak; ++: moderate; +++: significant; ++++: very significant; +++++: strong
Method: Anti-HGP antibodies were produced (see example A) or obtained from commercially available sources, and investigated for their ability to inhibit body hair growth ex vivo using human skin explants.
The activity of the antibodies was assessed based on their effect on the morphology and growth of the body hair.
The activity of keratinase A (Sigma) was investigated in parallel. Eflornithin (Calbiochem) was used as a reference.
40 explants of a diameter of about 11 mm (± 1 mm) were obtained by abdominoplasty from 2 men. The explants were placed in survival in the BEM (BIO-EC's Explants Medium) at 37° C in a humid atmosphere enriched with 5% CO2.
The treatment was performed at D0, D1, D4, D6 and D8 by topical application of 5 µl of diluted antibody used at final concentrations of 30 to 100 µg/mL in PBS. Eflornithin was used at a concentration of 100 mg/mL and keratinase at 20 mg/mL. A negative control experiment was performed using PBS only.
At D0, T0 lot explants were removed and cut in half. Half was fixed in buffered formalin and the other half was frozen at -80 ° C. A D8, 2 explants from each batch were taken and treated in the same manner.
After 24 hours of fixation in buffered formalin, the samples were dried and impregnated with paraffin using an automatic dehydration Leica TP 1010 according to the procedure MO-H-149, according to our procedure using a station coating Leica EG 1160. Sections of 5 microns were performed, using a microtome kind Minot, Leica RM 2125 and mounted on silanized glass slides Superfrost ® plus. Microscopic observations were performed by microscopy optical transmission. The shots were taken with a Leica Orthoplan DMLB or with a digital camera Olympus DP72 driven software acquisition and archiving Olympus CellD. The morphology was examined on paraffin sections stained with Masson's trichrome Goldner variant.

[2] = test system: isolated human hair follicles; assay: Hair growth of isolated human hair follicles maintained in vitro (morphometric study); assay type: cell-based; conditions: versus no application and Minoxidil 2% 10 µmol; application 2h00 at 37°C; length at D0, D4, D6, D8
Method: Hair growth is measured using standard morphometric studies on isolated human hair follicles maintained in vitro (Philpott, 1999). Hair follicles are micro-dissected in a human scalp and maintained in a culture medium. Hair follicles in anagen phase are selected for the study. Each tested group is composed of 10-12 hair follicles.

NCCC[C@](N)(C(=O)O)C(F)F [R1, α-difluoromethylornithine]
Bulb: morphology ([1]; D8, topical application): comparable to that observed in the untreated group D8 | Lower part of the hair follicle: morphology ([1]; D8, topical application): very slight cell alterations | Midsection, sebaceous glands: morphology of inner and outer root sheaths ([1]; D8, topical application): clear cellular alterations | Upper part, near the infundibulum: morphology of the epithelial sheaths ([1]; D8, topical application): sharp cellular alterations | morphology of the epidermis ([1]; D8, topical application): slightly altered with a slight spongiosis | Sebaceous gland (quotation of morphological alterations) ([1]; sebaceous gland region of the hair follicle, topical application D0, D1, D4, D6, D8, antibodies 30 to 100 µg/mL in PBS, Eflornithin 100 mg/mL, keratinase 20 mg/mL, D8): ++++ | Upper part (quotation of morphological alterations) ([1]; upper part of the hair follicle near the infundibulum, topical application D0, D1, D4, D6, D8, antibodies 30 to 100 µg/mL in PBS, Eflornithin 100 mg/mL, keratinase 20 mg/mL, D8): ++++ | Hair growth compared to Control Group 0 and to Control Group M [2]: significant hair growth retardation
